ChEMBL document CHEMBL5500393, “Discovery and Optimization of Novel SaFabI Inhibitors as Specific Therapeutic Agents for MRSA Infection” (J Med Chem, 2024)
In brackets after ≈: the same amount, converted by molar mass.

What was measured:
[1] = target: T1, Enoyl-[acyl-carrier-protein] reductase [NADPH] FabI (Staphylococcus aureus) (UniProt Q6GI75); test: Inhibition of N-terminal his 6 tagged Staphylococcus aureus Fabi (1 to […] residues) expressed in Escherichia coli BL21 at 10 uM incubated for 30 mins in presence of NADPH by fluorescence based microplate reader analysis relative to control
T1 sequence (whole entry): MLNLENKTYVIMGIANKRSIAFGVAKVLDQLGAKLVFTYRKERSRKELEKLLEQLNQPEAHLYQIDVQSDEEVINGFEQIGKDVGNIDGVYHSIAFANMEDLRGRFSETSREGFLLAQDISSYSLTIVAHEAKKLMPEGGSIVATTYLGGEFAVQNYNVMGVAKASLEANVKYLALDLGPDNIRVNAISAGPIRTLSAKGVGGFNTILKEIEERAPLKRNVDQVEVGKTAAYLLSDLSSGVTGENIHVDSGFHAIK

[2] = target: T1, Enoyl-[acyl-carrier-protein] reductase [NADPH] FabI (Staphylococcus aureus); test: Inhibition of N-terminal his 6 tagged Staphylococcus aureus Fabi (1 to […] residues) expressed in Escherichia coli BL21 at 1 uM incubated for 30 mins in presence of NADPH by fluorescence based microplate reader analysis relative to control
Staphylococcus aureus [3] = test: Antimicrobial activity against […] Staphylococcus aureus ATCC33591 measured after 24 hrs by CLSI protocol based microdilution method; assay type: functional
Staphylococcus aureus [4] = test: Antimicrobial activity against […] Staphylococcus aureus ATCC43300 measured after 24 hrs by CLSI protocol based microdilution method; assay type: functional
Staphylococcus aureus [5] = test: Antimicrobial activity against […] Staphylococcus aureus USA300 measured after 24 hrs by CLSI protocol based microdilution method; assay type: functional
Staphylococcus aureus [6] = test: Antimicrobial activity against […] Staphylococcus aureus NRS271 measured after 24 hrs by CLSI protocol based microdilution method; assay type: functional
Staphylococcus aureus [7] = test: Antimicrobial activity against methicillin-susceptible Staphylococcus aureus ATCC29213 measured after 24 hrs by CLSI protocol based microdilution method; assay type: functional
Staphylococcus aureus [8] = test: Antimicrobial activity against methicillin-susceptible Staphylococcus aureus ATCC25923 measured after 24 hrs by CLSI protocol based microdilution method; assay type: functional
Enterococcus faecium = test: Antimicrobial activity against Enterococcus faecium ATCC19434 measured after 24 hrs by CLSI protocol based microdilution method; assay type: functional
Enterococcus faecalis = test: Antimicrobial activity against Enterococcus faecalis ATCC29212 measured after 24 hrs by CLSI protocol based microdilution method; assay type: functional
Pseudomonas aeruginosa = test: Antimicrobial activity against Pseudomonas aeruginosa PAO1 measured after 24 hrs by CLSI protocol based microdilution method; assay type: functional
Escherichia coli = test: Antimicrobial activity against Escherichia coli ATCC25922 measured after 24 hrs by CLSI protocol based microdilution method; assay type: functional
Acinetobacter baumannii = test: Antimicrobial activity against Acinetobacter baumannii ATCC19606 measured after 24 hrs by CLSI protocol based microdilution method; assay type: functional
Candida albicans = test: Antimicrobial activity against Candida albicans SC5314 measured after 48 hrs by CLSI protocol based microdilution method; assay type: functional

SMILES | inhibition [1] [%] | inhibition [2] [%] | MIC (Staphylococcus aureus [3]) [µg/mL] | MIC (Staphylococcus aureus [4]) [µg/mL] | MIC (Staphylococcus aureus [5]) [µg/mL] | MIC (Staphylococcus aureus [6]) [µg/mL] | MIC (Staphylococcus aureus [7]) [µg/mL] | MIC (Staphylococcus aureus [8]) [µg/mL] | MIC (Enterococcus faecium) [µg/mL] | MIC (Enterococcus faecalis) [µg/mL] | MIC (Pseudomonas aeruginosa) [µg/mL] | MIC (Escherichia coli) [µg/mL] | MIC (Acinetobacter baumannii) [µg/mL] | MIC (Candida albicans) [µg/mL]
Cn1c(C2CC(=O)N(C3CCCCC3)C2)nc2ccccc21 (stereo not given) | 43.7 | 3.2 | > 32 | > 32 | > 32 | > 32 | > 32 | > 32 | > 32 | > 32 | > 32 | > 32 | > 32 | > 32
Cc1cccc(C(=O)NCCNC(=O)c2nc3ccccc3n2C)c1C | 3.7 | 1.7 | > 32 | > 32 | > 32 | > 32 | > 32 | > 32 | > 32 | > 32 | > 32 | > 32 | > 32 | > 32
O=C1CC(c2nc3ccccc3[nH]2)CN1c1cccc(Cl)c1F (stereo not given) | 16.9 | 1.7 | > 32 | > 32 | > 32 | > 32 | > 32 | – | > 32 | > 32 | > 32 | > 32 | > 32 | > 32
Cc1cccc(NC(=O)c2nc3ccccc3n2C)c1C | 8.9 | 5.2 | > 32 | > 32 | > 32 | > 32 | > 32 | > 32 | > 32 | > 32 | > 32 | > 32 | > 32 | > 32
CC(=O)c1ccc(N2CC(c3nc4ccccc4n3C)CC2=O)cc1Cl (stereo not given) | 3.8 | 5.5 | > 32 | > 32 | > 32 | > 32 | > 32 | > 32 | > 32 | > 32 | > 32 | > 32 | > 32 | > 32
CC(=O)c1ccc(N2CC(c3nc4ccccc4n3C)CC2=O)cc1 (stereo not given) | 10.1 | 2.8 | > 32 | > 32 | > 32 | > 32 | > 32 | > 32 | > 32 | > 32 | > 32 | > 32 | > 32 | > 32
CCCCCC/C=C/CCCCCCCc1cccc(O)c1C(=O)O | > 70 | – | – | – | – | – | – | – | – | – | – | – | – | –
Cn1c(C2CC(=O)N(c3cccc(Br)c3OCC(F)(F)F)C2)nc2ccccc21 (stereo not given) | 18.8 | 2.1 | > 32 | > 32 | > 32 | > 32 | > 32 | > 32 | > 32 | > 32 | > 32 | > 32 | > 32 | > 32
COc1cccc(OC)c1C(=O)N[C@@H]1C(=O)N2[C@@H]1SC(C)(C)[C@@H]2C(=O)O [METHICILLIN] | – | – | > 32 | > 32 | > 32 | > 32 | 2 (≈ 5.26 µM) | 2 (≈ 5.26 µM) | – | – | – | – | – | –
Cn1c(C2CC(=O)N(c3ccccc3-c3ccccc3)C2)nc2ccccc21 (stereo not given) | 5.8 | 2.3 | > 32 | > 32 | > 32 | > 32 | > 32 | > 32 | > 32 | > 32 | > 32 | > 32 | > 32 | > 32
Cn1c(CCC(=O)NCc2ccccc2)nc2ccccc21 | 6.1 | 7.9 | > 32 | > 32 | > 32 | > 32 | > 32 | > 32 | > 32 | > 32 | > 32 | > 32 | > 32 | > 32
Cc1cccc(NC(=O)CCNC(=O)c2nc3ccccc3n2C)c1C | 6.6 | 4.8 | > 32 | > 32 | > 32 | > 32 | > 32 | > 32 | > 32 | > 32 | > 32 | > 32 | > 32 | > 32
CN(C)c1ccc2nc3c(C(=O)O)cc(O)c(O)c3[o+]c2c1 | > 70 | – | – | – | – | – | – | – | – | – | – | – | – | –
Cn1c(CCC(=O)NCCC(=O)NCc2ccccc2)nc2ccccc21 | 24.7 | 7.5 | > 32 | > 32 | > 32 | > 32 | > 32 | > 32 | > 32 | > 32 | > 32 | > 32 | > 32 | > 32
O=c1sn(-c2cccc3ccccc23)c(=O)n1Cc1ccccc1 | > 70 | – | – | – | – | – | – | – | – | – | – | – | – | –
Cn1c(C2CC(=O)N(c3ccc(Cl)cc3)C2)nc2ccccc21 (stereo not given) | 35.7 | 2.2 | > 32 | > 32 | > 32 | > 32 | > 32 | > 32 | > 32 | > 32 | > 32 | > 32 | > 32 | > 32
Cn1c(C(=O)NCc2ccccc2)nc2ccccc21 | 4.7 | 6.2 | > 32 | > 32 | > 32 | > 32 | > 32 | > 32 | > 32 | > 32 | > 32 | > 32 | > 32 | > 32
Cc1c(Br)cccc1N1C[C@H](c2nc3ccccc3n2C)CC1=O | – | – | > 32 | > 32 | > 32 | > 32 | > 32 | > 32 | – | – | – | – | – | –
Cn1c(C2CC(=O)N(c3ccccc3)C2)nc2ccccc21 (stereo not given) | 56.2 | 8.9 | > 32 | > 32 | > 32 | > 32 | > 32 | > 32 | > 32 | > 32 | > 32 | > 32 | > 32 | > 32
COc1ccc(N2CC(c3nc4ccccc4n3C)CC2=O)cc1OC (stereo not given) | 22.5 | 1.6 | > 32 | > 32 | > 32 | > 32 | > 32 | > 32 | > 32 | > 32 | > 32 | > 32 | > 32 | > 32
COCCCOc1ccc(C)c(C[S+]([O-])c2nc3ccccc3[nH]2)n1 (stereo not given) | > 70 | – | – | – | – | – | – | – | – | – | – | – | – | –
Cn1c(C2CC(=O)N(CCc3ccccc3)C2)nc2ccccc21 (stereo not given) | 3.9 | 5.8 | > 32 | > 32 | > 32 | > 32 | > 32 | > 32 | > 32 | > 32 | > 32 | > 32 | > 32 | > 32
O=C(N/N=C/c1cc(O)c(O)cc1O)c1cc2ccccc2cc1O | > 70 | – | – | – | – | – | – | – | – | – | – | – | – | –
Cn1c(C2CC(=O)N(c3noc4ccccc34)C2)nc2ccccc21 (stereo not given) | 11.6 | 2.5 | > 32 | > 32 | > 32 | > 32 | > 32 | > 32 | > 32 | > 32 | > 32 | > 32 | > 32 | > 32
Cn1c(C(=O)Nc2cccc(C(=O)NCc3ccccc3)c2)nc2ccccc21 | 4 | 6.8 | > 32 | > 32 | > 32 | > 32 | > 32 | > 32 | > 32 | > 32 | > 32 | > 32 | > 32 | > 32
Oc1ccc2ccccc2c1SSc1c(O)ccc2ccccc12 | > 70 | – | – | – | – | – | – | – | – | – | – | – | – | –
O=C1C=CC(=O)c2ccccc21 | > 70 | – | – | – | – | – | – | – | – | – | – | – | – | –
